In patent publication US20060172943A1, “Restoring vascular function” (priority 2003, published 2006):
Ends that are not written are not given here.

Assays:
[1] = test system: tenascin-C mRNA expression in cultured rat cardiac endothelial cells; test: PCR analysis of tenascin-C mRNA expression in cultured cardiac endothelial cells treated with PDGF; type: cell-based; details: data not shown
Protocol: Tenascin-C expression was induced by PDGF during in vitro studies in rat aortic smooth muscle cells. […] Control cells received no PDGF. Cardiac endothelial cells from young (4-month old) and old (24-month old) rat hearts were tested. The number of treated and non-treated cultures tested was two (n=2 per group). Tenascin-C expression was higher in PDGF-treated cells and in younger (4 month old) as opposed to older ([…]) cultures of rat cardiac endothelial cells.

[2] = test system: tenascin-C expression in the heart; test: Immunohistochemical analysis of heart sections after intramyocardial PDGF injection; type: in vivo, rat; details: rats, 24 h, immunohistochemistry, data not shown
Protocol: Cardiac injections of PDGF ligand were performed as described in Xaymardan et al., Senescent impairment in synergistic cytokine pathways that provide rapid cardioprotection in the rat heart. J Exp Med, 199(6): p. 797-804 (2004). Briefly, rats were anesthetized, an intercostal thoracotomy was performed and then the rats received intramyocardial injections of PDGF-AB (100 ng/50 μl PBS) at the anterior wall of the myocardium (two 25 μl injections, 2 mm apart) through a 28 gauge needle. The chest wall was closed, the lungs inflated and the rats were extubated. Twenty-four hours later, the rats were sacrificed and the hearts were harvested for paraffin embedding and sectioning, using standard techniques.
(§1) The following primary antibodies were used for immunostaining histological sections: anti-tenascin-C (Santa Cruz Biotechnology, California), anti-pIII (Mobitec, Germany), anti-β-galactosidase (Biogenesis, U.K.), anti-PDGFRα (Santa Cruz Biotechnology). For consistency, sections for all analyses were selected from the mid-papillary region of the ventricles. Primary antibodies were labeled with biotin and visualized with Texas Red- and FITC-conjugated avidin (Vector Labs, California).

[3] = test system: rat cardiac microvascular endothelial cells; test: In vitro cell adhesion and spreading analysis on coated substrates; type: cell-based; details: for cells that failed to attach to the substrate: within 10 min of plating
Protocol: (§2) Rat cardiac microvascular endothelial cells were isolated from 3-month-old rats according to the method of Nishida et al. (1995). Cells were cultured on either collagen-coated or tenascin-C-coated (10 μg/ml) 8-well chamber slides (Nunc Nalge International, Illinois.) in minimal media (5% fetal bovine serum, 1% penicillin, 1% streptomycin in Dulbecco's modified Eagle's medium) for up to 48 hours and photographed daily. […] For migration analysis, cells were covered with 300 μl of collagen gel (Chemicon, California) after 3 h of culture on 10 μg/ml collagen or tenascin-C. The gel was allowed to polymerize for 1 hour at 37° C. and 200 μl of minimal media containing VEGF or PDGF (5 ng/ml) or no growth factor was added to the wells. Cells were incubated for up to 48 h, and analyzed for peak migration rates using an inverted microscope (Nikon, Japan): migratory distance of the 5 cells that had migrated furthest through the Z-axis of the gel was determined using the Z-plane focus knob of the microscope. Each experiment was repeated 4 times.
The role of tenascin-C in the regulation of cardiac angiogenesis, endothelial cell phenotype and behavior was further analyzed by observing whether tenascin-C influenced cell adhesion. Cardiac endothelial cells were isolated from young hearts and cultured on either tenascin-C or collagen at a concentration of 10 μg/ml. […] Thus, it appeared that tenascin-C has a short-term anti-adhesive effect on cardiac endothelial cells. […] After 3 h of culture, 99% of cells were attached to the collagen substrate, while approximately 10% of cells on tenascin-C still fail to adhere in this time. Thus, tenascin-C can mediate endothelial cell attachment but, at least within the first few hours of endothelial cell binding to tenascin-C, this attachment is weak and cells maintain a rounded phenotype.
The time period and substrate concentration effects upon cell attachment were further examined by plating rat microvascular endothelial cells on various concentrations (1 μg/ml, 10 μg/ml and 100 μg/ml) of collagen and tenascin-C and observing the attachment of cells to these substrates. As shown in FIGS. 6A-C, within 3 hr, cells on collagen were well attached and beginning to spread into a monolayer. In contrast, cells plated on tenascin-C for 3 hr remained rounded, especially when higher concentrations of tenascin-C were used (FIGS. 6D-F).

[4] = test system: rat cardiac microvascular endothelial cells; test: Three-dimensional migration assay through collagen gel; type: cell-based; details: cells cultured 3 h on substrate 10 μg/ml, 48 hours; for increase of peak migration distance in response to PDGF compared to absence of growth factors: PDGF 5 ng/ml; for increase of peak migration distance in response to VEGF compared to absence of growth factors: VEGF 5 ng/ml
Protocol: as §2
A three-dimensional assay system was developed in which cardiac endothelial cells were cultured on either collagen or tenascin-C for 3 h, and then migration through a collagen gel was analyzed in response to PDGF, VEGF, or the absence of angiogenic growth factors (FIGS. 8A, B). After 48 hours, peak migration distances through the Z-axis of the gel were determined (FIG. 8C).

[5] = test system: cardiac vasculature of young (3-month-old) and old (18-month-old) murine hearts; test: In vivo phage binding in heart after tail vein injection, quantified by phage titering; details: individual tail vein injection; 3-month-old vs 18-month-old mice; titers of phage eluted from hearts
Protocol: To identify young-specific bone marrow-homing phage, a phage library encoding a cyclically constrained seven amino acid variable region (New England Biolabs, Massachusetts) was injected into young (3 month) and old (18-month) adult mice, using methods described in Cai, D., et al., Age-associated impairment in TNF-alpha cardioprotection from myocardial infarction. Am J Physiol Heart Circ Physiol, 2003. 285(2): p. H463-69. Phage clones were selected for sequencing from phage pools eluted from young rather than old bone marrow. To confirm that these clones preferentially bound to young bone marrow, the clones were injected individually into young and old mice and young bone marrow-specific clones were re-selected from the young mouse's bone marrow. Young bone marrow-homing phage were then analyzed for cardiac binding to identify phage epitopes that preferentially bound to young cardiac vasculature as well as young bone marrow. The number of bound phage recovered per mg of tissue was quantified by serial dilution titration. The age-associated differential cardiac binding capacity of a candidate phage clone, ψR3Y32 was confirmed using methods described in Cai et al. (2004).
Individual injection of ψR3Y32 confirmed 10-fold higher levels of ψR3Y32 binding in young compared to old murine hearts (FIG. 3A).

[6] = target: T1, tenascin-C in the cardiac vasculature (Mus musculus, UniProt Q80YX1); test: Immunostaining of heart sections for phage coat protein pIII and tenascin-C; type: in vivo; details: rodent heart after phage injection
T1 construct: from tissue; host or cells: heart (cardiac vasculature) of phage-injected animals, paraffin sections
T1 sequence (Q80YX1 23-2110): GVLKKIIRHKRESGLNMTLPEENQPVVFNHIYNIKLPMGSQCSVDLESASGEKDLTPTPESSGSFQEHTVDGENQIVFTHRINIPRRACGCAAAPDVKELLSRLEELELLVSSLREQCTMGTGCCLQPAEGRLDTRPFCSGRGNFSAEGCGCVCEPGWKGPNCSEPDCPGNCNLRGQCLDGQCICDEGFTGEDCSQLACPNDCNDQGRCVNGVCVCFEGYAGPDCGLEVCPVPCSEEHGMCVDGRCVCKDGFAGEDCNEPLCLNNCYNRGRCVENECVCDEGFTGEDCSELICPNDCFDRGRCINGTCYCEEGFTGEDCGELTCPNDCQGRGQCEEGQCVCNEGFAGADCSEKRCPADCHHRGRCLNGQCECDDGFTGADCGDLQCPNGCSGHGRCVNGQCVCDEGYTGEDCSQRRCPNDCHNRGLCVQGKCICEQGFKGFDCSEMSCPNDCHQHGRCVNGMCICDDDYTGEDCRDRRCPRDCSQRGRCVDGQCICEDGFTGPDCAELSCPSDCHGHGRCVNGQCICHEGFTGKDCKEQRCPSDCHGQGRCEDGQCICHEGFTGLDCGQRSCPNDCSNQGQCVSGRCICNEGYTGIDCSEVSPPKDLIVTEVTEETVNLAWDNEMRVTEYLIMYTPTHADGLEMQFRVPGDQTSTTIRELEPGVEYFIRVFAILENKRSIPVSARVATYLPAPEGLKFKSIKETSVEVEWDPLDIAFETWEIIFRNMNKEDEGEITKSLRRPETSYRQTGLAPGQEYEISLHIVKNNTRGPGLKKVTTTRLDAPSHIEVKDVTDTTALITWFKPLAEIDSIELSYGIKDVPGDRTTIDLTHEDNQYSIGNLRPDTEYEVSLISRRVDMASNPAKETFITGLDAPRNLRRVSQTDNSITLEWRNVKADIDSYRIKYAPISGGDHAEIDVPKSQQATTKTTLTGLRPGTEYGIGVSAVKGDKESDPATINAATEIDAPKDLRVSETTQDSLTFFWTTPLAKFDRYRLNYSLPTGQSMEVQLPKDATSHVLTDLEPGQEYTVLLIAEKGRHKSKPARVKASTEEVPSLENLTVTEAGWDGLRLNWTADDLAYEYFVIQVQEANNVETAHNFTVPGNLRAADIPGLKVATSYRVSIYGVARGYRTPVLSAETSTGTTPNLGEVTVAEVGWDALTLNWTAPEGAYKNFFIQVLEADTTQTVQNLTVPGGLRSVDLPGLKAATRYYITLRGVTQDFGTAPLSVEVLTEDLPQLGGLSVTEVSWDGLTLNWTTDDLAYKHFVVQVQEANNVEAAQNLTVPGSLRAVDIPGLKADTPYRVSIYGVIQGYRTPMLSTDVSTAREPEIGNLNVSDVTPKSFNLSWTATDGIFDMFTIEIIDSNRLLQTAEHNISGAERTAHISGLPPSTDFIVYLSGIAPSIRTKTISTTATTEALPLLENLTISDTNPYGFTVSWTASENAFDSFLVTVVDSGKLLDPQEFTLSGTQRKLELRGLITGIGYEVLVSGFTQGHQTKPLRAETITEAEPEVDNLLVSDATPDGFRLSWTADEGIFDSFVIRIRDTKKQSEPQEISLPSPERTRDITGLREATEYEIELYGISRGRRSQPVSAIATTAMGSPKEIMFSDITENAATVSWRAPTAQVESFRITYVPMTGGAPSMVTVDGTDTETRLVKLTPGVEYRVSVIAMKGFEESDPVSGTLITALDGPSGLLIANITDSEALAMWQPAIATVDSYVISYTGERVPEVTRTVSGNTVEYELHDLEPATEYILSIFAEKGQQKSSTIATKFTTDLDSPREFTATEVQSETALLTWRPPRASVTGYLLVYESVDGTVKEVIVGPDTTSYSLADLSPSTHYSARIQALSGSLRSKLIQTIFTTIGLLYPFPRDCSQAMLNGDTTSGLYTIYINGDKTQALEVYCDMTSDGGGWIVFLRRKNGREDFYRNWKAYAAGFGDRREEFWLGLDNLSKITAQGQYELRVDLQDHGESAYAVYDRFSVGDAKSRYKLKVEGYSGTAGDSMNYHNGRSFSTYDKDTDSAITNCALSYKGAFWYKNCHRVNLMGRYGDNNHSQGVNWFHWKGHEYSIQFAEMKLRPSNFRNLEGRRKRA
Description: For immunohistochemical analysis of phage binding, hearts were harvested after phage injection, and then prepared for paraffin embedding and sectioning using standard histochemical procedures.
as §1
To investigate whether tenascin is an in vivo receptor for ψR3Y32, expression of tenascin-C as well as its relationship to phage binding sites was analyzed in the rodent heart. […] Co-staining for tenascin-C and the nuclear marker 4,6-diamidino-2-phenylindole (DAPI) further confirmed that tenascin-C is expressed on the luminal surface of cardiac vessels, and therefore may act at sites of endothelial cell/EPC cell incorporation during vascular remodeling (FIG. 3D).

[7] = 3 hours of incubation, substrate 10 μg/ml
[8] = after 3 h of culture, substrate 10 μg/ml

## PDGF-AB: platelet derived growth factor AB heterodimer ligand
[1]; RT-PCR, cardiac endothelial cells cultured with exogenous PDGF ligand
  time of peak upregulation of tenascin-C mRNA: 6 h
[1]; real-time PCR, cultured rat cardiac endothelial cells, n=2 per group
  tenascin-C mRNA expression in cardiac endothelial cells after treatment: increased
[2]
  tenascin-C expression in heart sections after treatment: increases tenascin-C expression

## collagen [reference compound]
[3]; [7]
  cell attachment and morphology: attached well and were beginning to spread
[3]; [8]
  cells attached to the substrate: 99%
[3]; substrate 10 μg/ml
  cells that failed to attach to the substrate: 16.9%
[4]
  increase of peak migration distance in response to PDGF compared to absence of growth factors: 51.4%
  increase of peak migration distance in response to VEGF compared to absence of growth factors: 63.3%

## tenascin-C: hexameric extracellular matrix glycoprotein, used as coating substrate for cardiac endothelial cells
[3]; [7]
  cell attachment and morphology: rounded and poorly attached
[3]; 24 hours of culture, substrate 10 μg/ml
  cell attachment and morphology: well attached and spread and formed a typical endothelial monolayer
[3]; 24 hr, substrate 100 μg/ml
  cell attachment and morphology: formed multi-layered cell clusters
[3]; [8]
  cells that fail to adhere: approximately 10%
[3]; substrate 10 μg/ml
  cells that failed to attach to the substrate: 86.9%
[4]
  increase of peak migration distance in response to PDGF compared to absence of growth factors: 64.3%
  increase of peak migration distance in response to VEGF compared to absence of growth factors: 91.6%

## ψR3Y32: phage clone from in vivo biopanning displaying a cyclically constrained peptide with core motif STISHN (SEQ ID NO:1), homologous to alpha-8 integrin (also: displayed on phage, cyclically constrained; listed as Homo sapiens)
[5]
  levels of phage binding in young compared to old murine hearts: 10 fold
[6]
  binding of phage to vessels within the heart (pIII immunostaining): confirmed the binding of ψR3Y32 to vessels within the heart
